Data reported in patent US7915293B2, “Ubiquitin ligase inhibitors” (Rigel Pharmaceuticals, Inc., priority 2003, dated 2011).

What was measured:
Design in all cases: key: “+” indicates that the compound exibits inhibitory activity; “−” indicates that low or no inhibitory activity was observed
HeLa cells [1] = experiment: Cell proliferation assay, photographic image analysis of proliferation, apoptosis and death (PAD assay), HeLa; assay type: cell-based; settings: 6 concentrations tested
In short: (§1)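 Cells grown in RPMI with 5% FBS (2,000/well) and dosed 24 h after plating with 6.3-fold dilutions in duplicate (master plate 500× final, top 10 mM stock). After 48 h at 37 °C, cells formamide-fixed and DAPI-stained. Image analysis counted live, apoptotic and dead cells.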

A549 cells [2] = experiment: Non-photographic proliferation analysis (Promega Cell titer Aqueous), A549; assay type: cell-based; settings: 6 concentrations tested
Description: (§2) A549 (ATCC# CCL-185), HeLa (ATCC# CCL-2), HCT116 (ATCC# CCL-247), and H1299 (ATCC# CRL-5803) cells were maintained in T175 flasks following the ATCC recommended media and handling procedures. Flasks reaching approximately 70% confluency were trypsinized and resuspended in RPMI media (Cell-Gro catalog number 10-040-CM) modified to contain 5% FBS, 100 ug/mlPen/Strep (Cell-Gro catalog number 30-002-CL), and 0.3 mg/ml L-Glutamine (Cell-Gro catalog number 25-003-CL). A 20,000 cells/ml solution was made for plating. Cells were plated in black Packard 96 well plates by placing 100 μl per well (2,000 cells per well).
(§3) Compounds and additional media were added 24 hours after cell plating. A compound master plate was created with concentrations 500 times greater than the final concentration added to the cells. All compound testing was done in duplicate using 6.3 fold dilutions starting with 10 mM. All outside wells (and 4 internal wells) were DMSO controls. Taxol and at least one additional control were run on all plates. Three microliters of the compound master plate were added to deep well blocks containing 750 μl of RPMI media. One hundred microliters were transferred from the compound/media deep well blocks to the plated cells resulting in a 500 fold dilution of the compounds. Cells were grown at 37° C., 5% CO2 for 48 hours.
(§4) Some cell plates were treated with Promega Cell titer Aqueous 1 kit (promega—VWR catalog number G3580). In this case, 48 hours after the test compound were added, 100 μl of media were removed and 20 μl of cell titer reagent were added to all wells. Plates were incubated at 37° C. for 45 minutes prior to absorbance reads on the Wallac plate reader at 490 nm for 0.1 sec/well.

A549 cells [3] = experiment: Cell proliferation assay, photographic image analysis of proliferation, apoptosis and death (PAD assay), A549; assay type: cell-based; settings: 6 concentrations tested
In short: as §1

HCT116 cells [4] = experiment: Cell proliferation assay, photographic image analysis of proliferation, apoptosis and death (PAD assay), HCT116; assay type: cell-based; settings: 6 concentrations tested
Description: as §2, §3
Cells to be analyzed by photography were fixed and stained. One hundred microliters of media were removed and 100 μl of 9.3% […] was added to each well. Plates were left on the benchtop for 45 minutes. A staining solution containing 1.55 μl of 1 mg/ml DAPI added to 18.75 ml PBS was warmed for 15 minutes at 37° C. The cells were aspirated prior to washing with 100 μl of PBS. Seventy microliters of PBS were aspirated and 170 μl of the DAPI solution were added to each well of fixed cells. Plates were left at room temperature for one hour then aspirated and washed twice with 100 μl of PBS. The stained cells were left at 4° C. for a minimum of 16 hours before photographic analysis with Array Scan II (Cellomics). Analysis of the photographic images to determine numbers of live cells (proliferation), apoptotic cells and dead cells, were according to the methods described in U.S. Provisional Patent Application Ser. No. 60/406,714, which incorporated herein in its entirety.

HCT116 cells [5] = experiment: Non-photographic proliferation analysis (Promega Cell titer Aqueous), HCT116; assay type: cell-based; settings: 6 concentrations tested
Description: as §2, §3, §4

HeLa cells [6] = experiment: Non-photographic proliferation analysis (Promega Cell titer Aqueous), HeLa; assay type: cell-based; settings: 6 concentrations tested
Description: as §2, §3, §4

[7] = target: E3 (His-APC11/APC2-"APC") (Homo sapiens, UniProt Q9NYG5+Q9UJX6); experiment: Plate-based E3 ligase assay (APC FLAG), auto-ubiquitination; assay type: biochemical; settings: 8 concentrations tested
In short: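 His-APC11/APC2 auto-ubiquitination was run in casein-blocked nickel plates for 1 h at room temperature, with E1 at 5 ng/well, UbcH5c at 20 ng/well and APC at 100 ng/well. Buffer was 62.5 mM Tris pH 7.6, 3 mM MgCl2, 1 mM DTT, 2.5 mM ATP and Flag-ubiquitin at 100 ng/well. Detection used anti-Flag/HRP chemiluminescence, and IC50 was typically from 6 or 8 concentrations versus a DMSO control.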

MDM2 / p53 substrate = MDM2 / p53 substrate (Homo sapiens, UniProt Q00987); experiment: Plate-based MDM2 substrate ligation assay (MDM2-P53-FLAG); assay type: biochemical; settings: 8 concentrations tested
Excerpt: This assay was preformed essentially as described in WO 03/076899 (page 77, line 5 to page 80, line 13), hereby incorporated by reference in its entirety.

Chain of E3 (His-APC11/APC2-"APC") (Q9NYG5 whole entry): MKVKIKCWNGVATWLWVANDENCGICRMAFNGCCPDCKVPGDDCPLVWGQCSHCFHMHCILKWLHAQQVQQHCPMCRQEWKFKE
Chain of E3 (His-APC11/APC2-"APC") (Q9UJX6 whole entry): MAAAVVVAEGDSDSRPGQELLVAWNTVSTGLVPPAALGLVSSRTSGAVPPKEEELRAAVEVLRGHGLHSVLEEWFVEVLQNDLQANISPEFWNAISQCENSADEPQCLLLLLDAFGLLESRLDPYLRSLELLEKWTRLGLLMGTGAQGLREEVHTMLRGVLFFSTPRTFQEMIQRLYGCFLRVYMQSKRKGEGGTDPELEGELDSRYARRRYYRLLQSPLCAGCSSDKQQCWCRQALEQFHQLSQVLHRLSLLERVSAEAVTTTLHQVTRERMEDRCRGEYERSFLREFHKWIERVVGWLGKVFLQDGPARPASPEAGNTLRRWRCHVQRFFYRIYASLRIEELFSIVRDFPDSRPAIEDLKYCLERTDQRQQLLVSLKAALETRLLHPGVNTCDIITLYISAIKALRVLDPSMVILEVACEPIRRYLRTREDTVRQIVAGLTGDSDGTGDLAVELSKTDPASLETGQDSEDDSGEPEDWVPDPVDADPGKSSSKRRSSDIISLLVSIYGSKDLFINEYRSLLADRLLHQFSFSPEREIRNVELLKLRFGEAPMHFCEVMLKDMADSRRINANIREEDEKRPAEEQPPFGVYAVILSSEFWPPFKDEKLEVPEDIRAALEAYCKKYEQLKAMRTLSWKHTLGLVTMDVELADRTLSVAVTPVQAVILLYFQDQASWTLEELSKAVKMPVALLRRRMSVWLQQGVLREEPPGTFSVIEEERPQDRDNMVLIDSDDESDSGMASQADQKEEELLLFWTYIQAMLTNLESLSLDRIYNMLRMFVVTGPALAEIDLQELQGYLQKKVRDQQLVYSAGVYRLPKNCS
Chain of MDM2 / p53 substrate (Q00987 whole entry): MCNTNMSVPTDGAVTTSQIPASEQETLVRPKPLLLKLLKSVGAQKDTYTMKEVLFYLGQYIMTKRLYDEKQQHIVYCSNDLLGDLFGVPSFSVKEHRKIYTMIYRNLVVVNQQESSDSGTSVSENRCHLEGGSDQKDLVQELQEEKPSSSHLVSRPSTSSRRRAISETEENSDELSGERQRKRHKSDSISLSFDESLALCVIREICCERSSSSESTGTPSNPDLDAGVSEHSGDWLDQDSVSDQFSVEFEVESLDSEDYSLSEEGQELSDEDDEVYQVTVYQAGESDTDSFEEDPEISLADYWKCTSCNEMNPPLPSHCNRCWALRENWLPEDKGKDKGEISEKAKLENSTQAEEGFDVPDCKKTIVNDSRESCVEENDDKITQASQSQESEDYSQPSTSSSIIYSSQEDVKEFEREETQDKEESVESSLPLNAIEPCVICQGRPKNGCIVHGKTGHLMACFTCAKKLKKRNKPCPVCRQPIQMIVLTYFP

SMILES	PAD Assay, HELA 6 pt (HeLa cells [1])	Cell Titer-Aqueous, A549 6 pt (A549 cells [2])	PAD Assay, A549 6 pt (A549 cells [3])	PAD Assay, HCT116 6 pt (HCT116 cells [4])	Cell Titer-Aqueous, HCT116 6 pt (HCT116 cells [5])	Cell Titer-Aqueous, HELA 6 pt (HeLa cells [6])	APC Flag 8 pt [7]	MDM2-P53 Flag 8 pt (MDM2 / p53 substrate)
O=[N+]([O-])c1ccc(Oc2c(Cl)cc(S(=O)(=O)Nc3cccc(Cl)c3)cc2Cl)c(Cl)c1 [Compound 154, 3,5-dichloro-4-(2-chloro-4-nitrophenoxy)-N-(3-chlorophenyl)benzenesulfonamide]	−	+	−	−	−	+	+	
O=[N+]([O-])c1ccc(Oc2c(Cl)cc(S(=O)(=O)Nc3cccc(C(F)(F)F)c3)cc2Cl)c(Cl)c1 [Example 7, 3,5-dichloro-4-(2-chloro-4-nitrophenoxy)-N-[3-(trifluoromethyl)phenyl]benzene-sulfonamide]								−
O=[N+]([O-])c1ccc(Oc2c(Cl)cc(S(=O)(=O)Nc3ccc(F)c(Cl)c3)cc2Cl)c(Cl)c1 [Example 16, 3,5-dichloro-N-(3-chloro-4-fluorophenyl)-4-(2-chloro-4-nitrophenoxy)benzene-sulfonamide]		+	−		+	+	+	
O=[N+]([O-])c1ccc(Oc2c(Cl)cc(S(=O)(=O)Nc3cc(Cl)cc(Cl)c3)cc2Cl)c(Cl)c1 [Example 24, 3,5-dichloro-4-(2-chloro-4-nitrophenoxy)-N-(3,5-dichlorophenyl)benzenesulfonamide]			−				+	+
N=C(NS(=O)(=O)c1cc(Cl)c(Oc2ccc([N+](=O)[O-])cc2)c(Cl)c1)c1ccncc1 [Example 62, N-{[3,5-dichloro-4-(4-nitrophenoxy)phenyl]sulfonyl}pyridine-4-carboximidamide]	+	+	+		+	+	−	
CC1CCCC(C)N1S(=O)(=O)c1cc(Cl)c(Oc2ccc([N+](=O)[O-])cc2Cl)c(Cl)c1 (centres unmarked) [Example 140, 1-{[3,5-dichloro-4-(2-chloro-4-nitrophenoxy)phenyl]sulfonyl}-2,6-dimethylpiperidine]		−			−	−	+	
Cc1cccc(C)c1N(S(=O)(=O)c1cc(Cl)c(Oc2ccc([N+](=O)[O-])cc2Cl)c(Cl)c1)S(=O)(=O)c1cc(Cl)c(Oc2ccc([N+](=O)[O-])cc2Cl)c(Cl)c1 [Example 145, 3,5-dichloro-4-(2-chloro-4-nitrophenoxy)-N-(2,6-dimethylphenyl)-N-(1,3-dichloro-2-(2-chloro-4-nitrophenoxy)5-sulfonylbenzene)benzenesulfonamide]		−			−	−	+	
Cc1cccc(C)c1NS(=O)(=O)c1cc(Cl)c(Oc2ccc([N+](=O)[O-])cc2Cl)c(Cl)c1 [Example 146, 3,5-dichloro-4-(2-chloro-4-nitrophenoxy)-N-(2,6-dimethylphenyl)benzenesulfonamide]	+	+	+		+	+	+	
Cc1c(Cl)cccc1NS(=O)(=O)c1cc(Cl)c(Oc2ccc([N+](=O)[O-])cc2Cl)c(Cl)c1 [Example 147, 3,5-dichloro-N-(3-chloro-2-methylphenyl)-4-(2-chloro-4-nitrophenoxy)benzene-sulfonamide]	+	+	+		+	+	+	
CS/C(=N\S(=O)(=O)c1cc(Cl)c(Oc2ccc([N+](=O)[O-])cc2Cl)c(Cl)c1)Nc1ccc(Cl)cc1 [Example 149, methyl N-(4-chlorophenyl)-N′-{[3,5-dichloro-4-(2-chloro-4-nitrophenoxy)phenyl]sulfonyl} imidothiocarbamate]	+	+	+		+	+	+	
O=[N+]([O-])c1ccc(Oc2c(Cl)cc(S(=O)(=O)Nc3cccc4cccnc34)cc2Cl)c(Cl)c1 [Example 219, 3,5-dichloro-4-(2-chloro-4-nitrophenoxy)-N-quinolin-8-ylbenzenesulfonamide]	+	+	+	+		+	+	
O=S(=O)(Nc1ccc(C(F)(F)F)cc1Cl)c1ccc(Oc2ncc(C(F)(F)F)cc2Cl)cc1 [Example 255, N-[2-chloro-4-(trifluoromethyl)phenyl]-4-{[3-chloro-5-(trifluoromethyl)pyridin-2-yl]oxy}benzenesulfonamide]	+		+	+			+	
O=[N+]([O-])c1ccc(Oc2c(Cl)cc(S(=O)(=O)Nc3ccccc3-n3cccc3)cc2Cl)c(Cl)c1 [Example 285, 3,5-dichloro-4-(2-chloro-4-nitrophenoxy)-N-[2-(1H-pyRRol-1-yl)phenyl]benzene-sulfonamide]	+		+	+			+	
